Usually IC50 stands for the point on the concentration scale where inhibition reaches its midpoint. High values mean weaker potency, low ones greater potency.

IDO, sequence (P14902 whole entry): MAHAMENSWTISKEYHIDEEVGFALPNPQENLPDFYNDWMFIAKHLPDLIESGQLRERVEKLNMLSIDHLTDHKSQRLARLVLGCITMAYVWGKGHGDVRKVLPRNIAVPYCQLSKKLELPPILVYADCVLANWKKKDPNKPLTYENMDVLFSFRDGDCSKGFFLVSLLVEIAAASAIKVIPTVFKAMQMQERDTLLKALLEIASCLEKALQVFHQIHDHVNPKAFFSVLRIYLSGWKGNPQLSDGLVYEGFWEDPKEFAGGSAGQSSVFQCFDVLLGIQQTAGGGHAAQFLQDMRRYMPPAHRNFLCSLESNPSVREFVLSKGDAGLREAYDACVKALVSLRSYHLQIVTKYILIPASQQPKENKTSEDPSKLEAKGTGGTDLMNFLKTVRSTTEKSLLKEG

This assay addresses IDO (Homo sapiens, UniProt P14902). The assay can be described thus: LLE_IDO_ABS_DR (IDO assay).
On to `Cc1ccc(NC(=O)Nc2cc(-c3ccccc3C(=O)O)ccc2N(C)C2CCC(F)(F)CC2)cc1` [Example 104, 4′-((4,4-difluoro-cyclohexyl) (methyl)amino)-3′-(3-p-tolylureido)biphenyl-2-carboxylic acid], for which the IC50 worked out at 100 nM. `Cc1ccc(NC(=O)Nc2cc(-c3cc(F)ccc3C(=O)O)ccc2N(C)C2CCC(F)(F)CC2)cc1` [Example 105, 4′-((4,4-difluoro-cyclohexyl) (methyl)amino)-5-fluoro-3′-(3-p-tolylureido) biphenyl-2-carboxylic acid] showed an IC50 of 190 nM. For `Cc1ccc(NC(=O)Nc2cc(-c3ccccc3-c3nnn[nH]3)ccc2N(C)C2CCC(F)(F)CC2)cc1` [Example 106, 1-(4-((4,4-difluoro-cyclohexyl) (methyl)amino)-2′-(1H-tetrazol-5-yl)biphenyl-3-yl)-3-p-tolylurea], the IC50 was 8.81 nM. Molecule `CCC1CCCCN1c1ccc(-c2ccccc2C(=O)O)cc1NC(=O)Nc1ccc(C)cc1` (stereo not drawn) [Example 107, 4′-(2-ethylpiperidin-1-yl)-3′-(3-p-tolylureido)biphenyl-2-carboxylic acid] came in with an IC50 of 1860 nM. Turning to `CCN(CC(C)(C)C)c1ccc(-c2ccccc2C(=O)O)cc1NC(=O)Nc1ccccc1F` [Example 108, 4′-(ethyl(neopentyl)amino)-3′-(3-(2-fluorophenyl)ureido) biphenyl-2-carboxylic acid], the IC50 was determined as 250 nM. In the case of `CCC1CCCCN1c1ccc(-c2ccccc2-c2nnn[nH]2)cc1NC(=O)Nc1ccccc1F` (stereo not drawn) [Example 109, 1-(4-(2-ethylpiperidin-1-yl)-2′-(1H-tetrazol-5-yl)biphenyl-3-yl)-3-(2-fluorophenyl)urea], 410 nM corresponded to half-maximal inhibition (IC50).

On to `CCN(CC(C)(C)C)c1ccc(-c2ccccc2-c2nnn[nH]2)cc1NC(=O)Nc1ccc(C)cc1` [Example 110, 1-(4-(ethyl(neopentyl)amino)-2′-(1H-tetrazol-5-yl)biphenyl-3-yl)-3-p-tolylurea], for which inhibition was half-maximal at 40 nM (IC50). This IC50 lies about 10-fold lower than the previous one. As for `CCN(CC(C)(C)C)c1ccc(-c2ccccc2C(=O)O)cc1NC(=O)Nc1ccc(C)cc1` [Example 111, 4′-(ethyl(neopentyl)amino)-3′-(3-p-tolylureido)biphenyl-2-carboxylic acid], the figure is 210 nM; as for `CCN(CC(C)(C)C)c1ccc(-c2ccccc2-c2nnn[nH]2)cc1NC(=O)Nc1ccccc1F` [Example 112, 1-(4-(ethyl(neopentyl)amino)-2′-(1H-tetrazol-5-yl)biphenyl-3-yl)-3-(2-fluorophenyl)urea], 30 nM. `CCN(CC(C)(C)C)c1ccc(-c2cc(F)ccc2C(=O)O)cc1NC(=O)Nc1ccc(C)cc1` [Example 113, 4′-(ethyl(neopentyl)amino)-5-fluoro-3′-(3-p-tolylureido)biphenyl-2-carboxylic acid] showed an IC50 of 400 nM. `CCC1CCCCN1c1ccc(-c2ccccc2-c2nnn[nH]2)cc1NC(=O)Nc1ccc(C)cc1` (stereo not drawn) [Example 114, 1-(4-(2-ethylpiperidin-1-yl)-2′-(1H-tetrazol-5-yl)biphenyl-3-yl)-3-p-tolylurea] yielded an IC50 of 160 nM. For `CCN(CC(C)(C)C)c1ccc(-c2cc(F)ccc2C(=O)O)cc1NC(=O)Nc1ccccc1F` [Example 115, 4′-(ethyl(neopentyl)amino)-5-fluoro-3′-(3-(2-fluorophenyl)ureido) biphenyl-2-carboxylic acid] the value was 350 nM; for `CCC1CCCCN1c1ccc(-c2ccccc2C(=O)O)cc1NC(=O)Nc1ccccc1F` (stereo not drawn) [Example 116, 4′-(2-ethylpiperidin-1-yl)-3′-(3-(2-fluorophenyl)ureido) biphenyl-2-carboxylic acid], 2340 nM; for `COc1ccc(-c2ccc(N(CC(C)C)CC(C)C)c(NC(=O)Nc3ccc(C)cc3)c2)c(-c2nnn[nH]2)c1` [Example 117, 1-(4-(diisobutylamino)-4′-methoxy-2′-(1H-tetrazol-5-yl)biphenyl-3-yl)-3-p-tolylurea], 10 nM. With `Cc1ccc(NC(=O)Nc2cc(-c3ccccc3-c3nnn[nH]3)ccc2N(CC(C)C)C2CCCCC2)cc1` [Example 118, 1-(4-(cyclohexyl(isobutyl)amino)-2′-(1H-tetrazol-5-yl)biphenyl-3-yl)-3-p-tolylurea], the IC50 worked out at 4.76 nM.

For the molecule `Cc1ccc(NC(=O)Nc2cc(-c3ccccc3C(=O)O)ccc2N(CC(C)C)C2CCCCC2)cc1` [Example 119, 4′-(cyclohexyl (isobutyl)amino)-3′-(3-p-tolylureido)biphenyl-2-carboxylic acid], the IC50 turned out to be 5.19 nM. For `Cc1ccc(NC(=O)Nc2cc(-c3ccc(Cl)cc3C(=O)O)ccc2N(CC(C)C)C2CCCCC2)cc1` [Example 120, 4-chloro-4′-(cyclohexyl(isobutyl)amino)-3′-(3-p-tolylureido)biphenyl-2-carboxylic acid] the value was 30 nM; for `CC(C)CN(c1ccc(-c2ccccc2-c2nnn[nH]2)cc1NC(=O)Nc1ccccc1F)C1CCCCC1` [Example 121, 1-(4-(cyclohexyl(isobutyl)amino)-2′-(1H-tetrazol-5-yl)biphenyl-3-yl)-3-(2-fluorophenyl)urea], 2.59 nM.

Consider `CC(C)CN(c1ccc(-c2ccccc2C(=O)O)cc1NC(=O)Nc1ccccc1F)C1CCCCC1` [Example 122, 4′-(cyclohexyl(isobutyl)amino)-3′-(3-(2-fluorophenyl)ureido) biphenyl-2-carboxylic acid], for which the IC50 is 3.47 nM. As to `CC(C)CN(c1ccc(-c2ccc(Cl)cc2C(=O)O)cc1NC(=O)Nc1ccccc1F)C1CCCCC1` [Example 123, 4-chloro-4′-(cyclohexyl(isobutyl)amino)-3′-(3-(2-fluorophenyl)ureido) biphenyl-2-carboxylic acid], the midpoint of inhibition, the IC50, lay at 20 nM. Take `Cc1ccc(NC(=O)Nc2cc(-c3cc(F)ccc3C(=O)O)ccc2N(CC(C)C)C2CCCCC2)cc1` [Example 124, 4′-(cyclohexyl(isobutyl)amino)-5-fluoro-3′-(3-p-tolylureido)biphenyl-2-carboxylic acid]: the IC50 amounted to 5.18 nM. This IC50 is about 3.9-fold lower than that of the molecule before. For `CC(C)CN(c1ccc(-c2cc(F)ccc2C(=O)O)cc1NC(=O)Nc1ccccc1F)C1CCCCC1` [Example 125, 4′-(cyclohexyl(isobutyl)amino)-5-fluoro-3′-(3-(2-fluorophenyl)ureido) biphenyl-2-carboxylic acid], the IC50 was 5.92 nM. The IC50 values of the last two molecules are within 1.5-fold of each other. On to `COc1ccc(C(=O)O)c(-c2ccc(N(CC(C)C)CC(C)C)c(NC(=O)Nc3ccc(C)cc3)c2)c1` [Example 128, 4′-(diisobutylamino)-5-methoxy-3′-(3-p-tolylureido)biphenyl-2-carboxylic acid], for which the IC50 came to 390 nM. Regarding `Cc1ccc(NC(=O)Nc2cc(-c3ccccc3-c3nnn[nH]3)ccc2N(CCC2CC2)CC(C)C)cc1` [Example 129, 1-(4-((2-cyclopropylethyl) (isobutyl)amino)-2′-(1H-tetrazol-5-yl)biphenyl-3-yl)-3-p-tolylurea], the half-inhibitory concentration (IC50) stood at 9.53 nM. `Cc1ccc(NC(=O)Nc2cc(-c3cc(F)ccc3C(=O)O)ccc2N(CCC2CC2)CC(C)C)cc1` [Example 130, 4′-((2-cyclopropylethyl) (isobutyl)amino)-5-fluoro-3′-(3-p-tolylureido) biphenyl-2-carboxylic acid]: the half-inhibitory concentration (IC50) amounted to 40 nM.

As for `Cc1ccc(NC(=O)Nc2cc(-c3sccc3C(=O)O)ccc2N(CCC2CC2)CC(C)C)cc1` [Example 131, 2-(4-((2-cyclopropylethyl) (isobutyl)amino)-3-(3-p-tolylureido)phenyl) thiophene-3-carboxylic acid], half-maximal inhibition (IC50) required 50 nM.

On to `Cc1ccc(NC(=O)Nc2cc(-c3ccccc3C(=O)O)ccc2N(CCC2CC2)CC(C)C)cc1` [Example 132, 4′-((2-cyclopropylethyl) (isobutyl)amino)-3′-(3-p-tolylureido) biphenyl-2-carboxylic acid], for which half-maximal inhibition (IC50) required 50 nM. Consider `CC(C)CN(CCC1CC1)c1ccc(-c2ccccc2-c2nnn[nH]2)cc1NC(=O)Nc1ccccc1F` [Example 133, 1-(4-((2-cyclopropylethyl) (isobutyl)amino)-2′-(1H-tetrazol-5-yl)biphenyl-3-yl)-3-(2-fluorophenyl)urea], for which the IC50 stood at 6.45 nM. This IC50 is about 7.8-fold lower than that of the molecule before. `CC(C)CN(CCC1CC1)c1ccc(-c2ccccc2C(=O)O)cc1NC(=O)Nc1ccccc1F` [Example 134, 4′-((2-cyclopropylethyl) (isobutyl)amino)-3′-(3-(2-fluorophenyl)ureido)biphenyl-2-carboxylic acid]: half-maximal inhibition (IC50) was put at 30 nM.

`CC(C)CN(CCC1CC1)c1ccc(-c2cc(F)ccc2C(=O)O)cc1NC(=O)Nc1ccccc1F` [Example 135, 4′-((2-cyclopropylethyl) (isobutyl)amino)-5-fluoro-3′-(3-(2-fluorophenyl)ureido)biphenyl-2-carboxylic acid]: the IC50 was 20 nM. This IC50 lies about 1.5-fold lower than the previous one. Consider `CC(C)CN(CCC1CC1)c1ccc(-c2sccc2C(=O)O)cc1NC(=O)Nc1ccccc1F` [Example 136, 2-(4-((2-cyclopropylethyl) (isobutyl)amino)-3-(3-(2-fluorophenyl)ureido)phenyl)thiophene-3-carboxylic acid], for which half-maximal inhibition (IC50) was put at 70 nM. This IC50 is about 3.5-fold higher than that of the molecule before. With `CC(C)CN(CC(C)C)c1ccc(-c2ccccc2-c2nnn[nH]2)cc1NC(=O)Nc1ccc(F)cc1F` [Example 137, 1-(2,4-difluorophenyl)-3-(4-(diisobutylamino)-2′-(1H-tetrazol-5-yl)biphenyl-3-yl)urea], the IC50 stood at 5.24 nM. For `CC(C)CN(CC(C)C)c1ccc(-c2ccccc2C(=O)O)cc1NC(=O)Nc1ccc(F)cc1F` [Example 138, 3′-(3-(2,4-difluorophenyl)ureido)-4′-(diisobutylamino) biphenyl-2-carboxylic acid] the value was 6.24 nM; for `CC(C)CN(CC(C)C)c1ccc(-c2ccccc2-c2nnn[nH]2)cc1NC(=O)NC1CC1` [Example 139, 1-cyclopropyl-3-(4-(diisobutylamino)-2′-(1H-tetrazol-5-yl)biphenyl-3-yl)urea], 1980 nM. In turn, `CC(C)CN(CC(C)C)c1ccc(-c2ccccc2-c2nnn[nH]2)cc1NC(=O)NC1CCCCC1` [Example 140, 1-cyclohexyl-3-(4-(diisobutylamino)-2′-(1H-tetrazol-5-yl)biphenyl-3-yl)urea] showed an IC50 of 2960 nM. The molecule `CC(C)CN(CC(C)C)c1ccc(-c2ccccc2-c2nnn[nH]2)cc1NC(=O)NCC(C)(C)C` [Example 141, 1-(4-(diisobutylamino)-2′-(1H-tetrazol-5-yl)biphenyl-3-yl)-3-neopentylurea] gave an IC50 of 430 nM. This IC50 is about 6.9-fold lower than that of the molecule before.

For the origin of these results see US9758492B2, “IDO inhibitors” (Bristol-Myers Squibb Company, priority 2013, dated 2017).
